# Reference: patent US12281081B2, “Herbicidal compounds” (SYNGENTA CROP PROTECTION AG, priority 2019, dated 2025)
# Key:
# Format in all cases: in vivo
# Conditions in all cases: 250 g/Ha, evaluated after 13 days
# [1] = system: Alopecurus myosuroides (ALOMY); experiment: Pre-emergence herbicidal glasshouse test
# From the text: (§1) Compounds are applied at 250 g/h. […] NT=not tested.
# Setaria faberi (SETFA) [2] = experiment: Pre-emergence herbicidal glasshouse test
# From the text: as §1
# Avena fatua (AVEFA) [3] = experiment: Pre-emergence herbicidal glasshouse test
# From the text: as §1
# Lolium perenne (LOLPE) [4] = experiment: Pre-emergence herbicidal glasshouse test
# From the text: as §1
# [5] = system: Echinochloa crus-galli (ECHCG); experiment: Pre-emergence herbicidal glasshouse test
# From the text: as §1
# [6] = system: Alopecurus myosuroides (ALOMY); experiment: Post-emergence herbicidal glasshouse test
# From the text: as §1
# Setaria faberi (SETFA) [7] = experiment: Post-emergence herbicidal glasshouse test
# From the text: as §1
# Avena fatua (AVEFA) [8] = experiment: Post-emergence herbicidal glasshouse test
# From the text: as §1
# Lolium perenne (LOLPE) [9] = experiment: Post-emergence herbicidal glasshouse test
# From the text: as §1
# [10] = system: Echinochloa crus-galli (ECHCG); experiment: Post-emergence herbicidal glasshouse test
# From the text: as §1
SMILES,"percentage damage caused to the plant, ALOMY [1]","percentage damage caused to the plant, SETFA (Setaria faberi (SETFA) [2])","percentage damage caused to the plant, AVEFA (Avena fatua (AVEFA) [3])","percentage damage caused to the plant, LOLPE (Lolium perenne (LOLPE) [4])","percentage damage caused to the plant, ECHCG [5]","percentage damage caused to the plant, ALOMY [6]","percentage damage caused to the plant, SETFA (Setaria faberi (SETFA) [7])","percentage damage caused to the plant, AVEFA (Avena fatua (AVEFA) [8])","percentage damage caused to the plant, LOLPE (Lolium perenne (LOLPE) [9])","percentage damage caused to the plant, ECHCG [10]"
CC#Cc1cc(C)c(C2C(=O)CC3(CCN(S(=O)(=O)N4CCS(=O)(=O)CC4)CC3)CC2=O)c(C)c1 [Compound A12],5 (5=80-100%),5 (5=80-100%),5 (5=80-100%),4 (4=60-79%),5 (5=80-100%),5 (5=80-100%),5 (5=80-100%),5 (5=80-100%),4 (4=60-79%),5 (5=80-100%)
CC#Cc1cc(C)c(C2=C(OC(=O)OC)CC3(CCN(S(=N)(=O)CC)CC3)CC2=O)c(C)c1 (centres unmarked) [Compound P1],5 (5=80-100%),5 (5=80-100%),5 (5=80-100%),5 (5=80-100%),5 (5=80-100%),5 (5=80-100%),5 (5=80-100%),5 (5=80-100%),5 (5=80-100%),5 (5=80-100%)
CC#Cc1cc(C)c(C2C(=O)CC3(CCN(S(=N)(=O)c4ccccn4)CC3)CC2=O)c(C)c1 (centres unmarked) [Compound A5],–,5 (5=80-100%),5 (5=80-100%),5 (5=80-100%),5 (5=80-100%),–,5 (5=80-100%),5 (5=80-100%),5 (5=80-100%),5 (5=80-100%)
CC#Cc1cc(C)c(C2=C(OC(=O)OC)CC3(CCN(S(=O)(=O)N(C)C(=O)OC)CC3)CC2=O)c(C)c1 [Compound P4],5 (5=80-100%),5 (5=80-100%),5 (5=80-100%),5 (5=80-100%),5 (5=80-100%),5 (5=80-100%),5 (5=80-100%),5 (5=80-100%),5 (5=80-100%),5 (5=80-100%)
CC#Cc1cc(C)c(C2C(=O)CC3(CCN(S(=O)(=O)N(C)CC#N)CC3)CC2=O)c(C)c1 [Compound A11],1 (1=0-19%),5 (5=80-100%),2 (2=20-39%),4 (4=60-79%),5 (5=80-100%),5 (5=80-100%),5 (5=80-100%),5 (5=80-100%),5 (5=80-100%),5 (5=80-100%)
"CC#Cc1cc(C)c(C2=C(OC(=O)OC)CC3(CCN(S(=O)(=O)NC)CC3)CC2=O)c(C)c1 [Compound P2, [9-(2,6-dimethyl-4-prop-1-ynyl-phenyl)-3-(methylsulfamoyl)-10-oxo-3-azaspiro[5.5]undec-8-en-8-yl] methyl carbonate]",5 (5=80-100%),5 (5=80-100%),5 (5=80-100%),5 (5=80-100%),5 (5=80-100%),5 (5=80-100%),5 (5=80-100%),5 (5=80-100%),5 (5=80-100%),5 (5=80-100%)
CC#Cc1cc(C)c(C2C(=O)CC3(CCN(S(=O)(=O)N4CCOCC4)CC3)CC2=O)c(C)c1 [Compound A7],2 (2=20-39%),5 (5=80-100%),1 (1=0-19%),5 (5=80-100%),5 (5=80-100%),5 (5=80-100%),5 (5=80-100%),5 (5=80-100%),5 (5=80-100%),5 (5=80-100%)
"CC#Cc1cc(C)c(C2=C(OC(=O)OC)CC3(CCN(S(C)(=N)=O)CC3)CC2=O)c(C)c1 (centres unmarked) [Compound P3, [9-(2,6-dimethyl-4-prop-1-ynyl-phenyl)-3-(methylsulfonimidoyl)-10-oxo-3-azaspiro[5.5]undec-8-en-8-yl] methyl carbonate]",5 (5=80-100%),5 (5=80-100%),5 (5=80-100%),5 (5=80-100%),5 (5=80-100%),5 (5=80-100%),5 (5=80-100%),5 (5=80-100%),5 (5=80-100%),–
CC#Cc1cc(C)c(C2C(=O)CC3(CCN(S(=O)(=O)NCC)CC3)CC2=O)c(C)c1 [Compound A6],3 (3=40-59%),5 (5=80-100%),4 (4=60-79%),4 (4=60-79%),5 (5=80-100%),5 (5=80-100%),5 (5=80-100%),5 (5=80-100%),5 (5=80-100%),5 (5=80-100%)
CC#Cc1cc(C)c(C2C(=O)CC3(CCN(S(=O)(=O)NC(C)=O)CC3)CC2=O)c(C)c1 [Compound A13],5 (5=80-100%),5 (5=80-100%),5 (5=80-100%),5 (5=80-100%),5 (5=80-100%),5 (5=80-100%),5 (5=80-100%),5 (5=80-100%),5 (5=80-100%),5 (5=80-100%)
CC#Cc1cc(C)c(C2C(=O)CC3(CCN(S(=N)(=O)CC)CC3)CC2=O)c(C)c1 (centres unmarked) [Compound A2],5 (5=80-100%),5 (5=80-100%),5 (5=80-100%),5 (5=80-100%),5 (5=80-100%),5 (5=80-100%),5 (5=80-100%),5 (5=80-100%),5 (5=80-100%),5 (5=80-100%)
